Measured values published in patent US9737260B2, “Methods for determining total body skeletal muscle mass” (GLAXOSMITHKLINE LLC, priority 2011, dated 2017).

Assays:
[1] = rat, oral dose of 0.475 mg D3-creatine per rat
[2] = Dexamethasone-induced skeletal muscle atrophy in rats: lean body mass by QMR and creatine pool size by D3-creatine dilution; conditions: 22 week-old rats, once daily subcutaneous for 2 weeks; P<0.001 vs vehicle (459±45 g)

## [2H]C([2H])([2H])N(CC(=O)O)C(=N)N [D3-creatine]
[1]
  absorption of oral dose: rapidly and completely absorbed
[1]; minimal urinary spillage
  D3-creatine tracer dose available to equilibrate with the body creatine pool: > 99%

## C[C@@H]1C[C@H]2[C@@H]3CCC4=CC(=O)C=C[C@]4(C)[C@@]3(F)[C@@H](O)C[C@]2(C)[C@@]1(O)C(=O)CO [dexamethasone]
[2]
  lean body mass (LBM): 353 ± 32 g
